In patent US20140163226A1, “NOVEL PYRIMIDINE DERIVATIVE AND PHARMACEUTICAL COMPOSITION INCLUDING SAME AS AN ACTIVE INGREDIENT” (HANMI PHARMACEUTICAL CO., LTD., priority 2011, published 2014):
pIC50: −log10 of the molar value.

Molecular target: T1, DGAT1 (Homo sapiens, UniProt O75907)
T1 construct: host or cells: HepG2 cell homogenate (supernatant after sonication and 2000×g centrifugation)
T1 sequence (O75907 1-488): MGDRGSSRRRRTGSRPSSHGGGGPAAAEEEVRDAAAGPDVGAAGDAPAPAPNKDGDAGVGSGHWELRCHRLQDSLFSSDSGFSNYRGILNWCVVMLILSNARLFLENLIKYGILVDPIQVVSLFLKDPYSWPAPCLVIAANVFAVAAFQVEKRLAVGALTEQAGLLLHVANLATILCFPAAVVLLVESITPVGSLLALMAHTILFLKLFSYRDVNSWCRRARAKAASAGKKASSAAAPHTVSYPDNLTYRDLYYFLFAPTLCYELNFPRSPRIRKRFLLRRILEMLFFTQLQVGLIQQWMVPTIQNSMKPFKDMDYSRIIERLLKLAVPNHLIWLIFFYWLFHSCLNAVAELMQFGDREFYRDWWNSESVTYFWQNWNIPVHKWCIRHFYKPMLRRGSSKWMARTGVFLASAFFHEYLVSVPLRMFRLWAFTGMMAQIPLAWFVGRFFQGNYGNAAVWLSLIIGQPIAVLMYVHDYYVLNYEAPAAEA
Test: Assay for inhibition of DGAT1 activity (IC50), in vitro enzymatic assay using homogenates of HepG2 cell line
Assay type: biochemical
Settings: inhibitory activity against DGAT1; HepG2 protein (25 μg), 1,2-dioleoyl-sn-glycerol (30 μM), 14C oleoyl coenzyme A (10 μM), room temperature, 60 mins
Description: In order to identify DGAT1 inhibitors, in vitro enzymatic assays were performed by using homogenates of HepG2 cell line (ATCC, USA, HB-8065). Briefly stated, HepG2 cells were inoculated in 10% FBS-supplemented medium at 1.0×10^7 cells/well, cultured at 37° C., and harvested 72 hrs later. The harvested cells were lysed by ultrasonic treatment, and centrifuged for at 4° C. (2000×g, 10 mins) to remove any uncracked cells and impurities. The supernatant thus formed was obtained, and stored at −70° C. after its protein contents were quantitatively analyzed.
DGAT1 activation was assayed by a modification of the method described by Coleman (Methods in Enzymology, 1992, 209, 98-102). The compound of the present invention ([…]) was incubated with HepG2 protein (25 μg), MgCl2 (150 mM) and 1,2-dioleoyl-sn-glycerol (30 μM) in a total assay volume of 200 μL in plastic tubes.
The reaction was started by adding ^14C oleoyl coenzyme A (10 μM final concentration) and incubated at room temperature for 60 mins. The reaction was ended when a mixed solution (300 μL) of 2-propanol and heptane (7:1) was added thereto. Radioactive triolein product was separated into the organic phase by adding heptane (200 μL) and 1.0 M carbonate buffer (200 μL, pH 9.5). DGAT1 activity was quantified by counting aliquots of the upper heptane layer by liquid […].

pIC50: > 8.30
Structure (SMILES): O=C(O)Cc1ccc(-c2csc3c(-c4ccc(Nc5nc6ccccc6s5)cc4)ncnc23)cc1 [Example 61, 2-(4-(4-(4-(benzo[d]thiazol-2-ylamino)phenyl)thieno[3,2-d]pyrimidin-7-yl)phenyl)acetic acid]
